{"source": "paper PMC3971658", "about": "(The Journal of General Physiology, 2014)", "assay_type_in_all_cases": "cell-based", "key": {"[1]": {"system": "c-Src / human Cav2.3c channel and GABABR"}, "[2]": {"system": "c-Src / human Cav2.1 channel and GABABR"}, "Human Cav2.3d (Y1761F)": {"system": "Human Cav2.3d (Y1761F)", "settings": "50 µM"}, "Human Cav2.3d (Y1765F)": {"system": "Human Cav2.3d (Y1765F)", "settings": "read-out: IBa inhibition; 50 µM"}, "Human Cav2.3c (Y1761F)": {"system": "Human Cav2.3c (Y1761F)", "settings": "50 µM"}, "Human Cav2.1 (L1852T)": {"system": "Human Cav2.1 (L1852T)", "settings": "read-out: IBa inhibition; 50 µM"}, "Human Cav2.1 (Q1856E)": {"system": "Human Cav2.1 (Q1856E)", "settings": "read-out: IBa inhibition; 50 µM"}}, "note": "Marks after values point to notes of the source that are not given here. Where no end group is shown, it is not given here.", "data": [{"compound": "pp60c-Src peptide: phosphorylated synthetic pp60c-Src peptide (521–533) (DYFTSTEPQYQPG; also: phosphorylated, site not given here; UniProt P12931 521-533, looked up, fragment)", "values": [{"measurement": "effect of pp60c-Src peptide on c-Vc1.1 and baclofen inhibition of IBa", "setting": "[1]", "value": "The effect of K295R/Y527F c-Src was recapitulated"}, {"measurement": "baclofen inhibition of IBa with wild-type c-Src overexpression or pp60c-Src peptide", "setting": "[2]", "value": "did not affect baclofen inhibition of IBa"}]}, {"compound": "NCC(CC(=O)O)c1ccc(Cl)cc1", "note": "(stereo not shown) [Baclofen, baclofen]", "values": [{"measurement": "IBa inhibition", "setting": "Human Cav2.3d (Y1761F)", "value": "21.9 ± 1.8 (11) ^c %"}, {"measurement": "inhibition", "setting": "Human Cav2.3d (Y1765F)", "value": 28.9, "unit": "%"}, {"measurement": "IBa inhibition", "setting": "Human Cav2.3c (Y1761F)", "value": "14.6 ± 1.8 (8) ^c %"}, {"measurement": "inhibition", "setting": "Human Cav2.1 (L1852T)", "value": 50.6, "unit": "%"}, {"measurement": "inhibition", "setting": "Human Cav2.1 (Q1856E)", "value": 47.9, "unit": "%"}]}]}
